Laboratory results reported in publication PMC8765048 (JCI Insight, 2022).
Where two headings read alike, the source gives them in different places.

Legend:
A549 cells = experiment: Phospholipidosis imaging (NBD-PE fluorescence); conditions: 24 h, sangivamycin up to 5 μM, melperone 10 μM, amiodarone positive control
SARS-CoV-2 WA1 [1] = experiment: microbe, parasite or virus in culture; assay type: cell-based; conditions: for IC50: read-out: IC50
[2] = system: COVID-19 higher risk individuals; parameters: method as in earlier work; conditions: phase III clinical trial with 1433 patients, FDA advisory committee analysis; cited from earlier work
[3] = system: SARS-CoV-2 B.1.617.2 (Delta); experiment: microbe, parasite or virus in culture; assay type: cell-based; conditions: Severe acute respiratory syndrome coronavirus 2, Calu-3, 24 h
SARS-CoV-2 [4] = experiment: Combinatorial sangivamycin/remdesivir efficacy testing, Calu-3 cells; assay type: cell-based; conditions: Severe acute respiratory syndrome coronavirus 2, Calu-3; read-out: IC50 (nM), S:R by [Remdesivir]
SARS-CoV-2 P.2 (Zeta) [5] = experiment: microbe, parasite or virus in culture; assay type: cell-based; conditions: Severe acute respiratory syndrome coronavirus 2, Vero C1008, 24 h
SARS-CoV-2 WA1 [6] = experiment: microbe, parasite or virus in culture; assay type: cell-based; conditions: Severe acute respiratory syndrome coronavirus 2, Calu-3, 72 h
[7] = system: SARS-CoV-2 B.1.351 (Beta); experiment: microbe, parasite or virus in culture; assay type: cell-based; conditions: Severe acute respiratory syndrome coronavirus 2, Vero C1008, 18 h
[8] = system: SARS-CoV-2 B.1.617.2 (Delta); experiment: microbe, parasite or virus in culture; assay type: cell-based; conditions: Severe acute respiratory syndrome coronavirus 2, VeroE6/TMPRSS2, 18 h
SARS-CoV-2 P.1 (Gamma) [9] = experiment: microbe, parasite or virus in culture; assay type: cell-based; conditions: Severe acute respiratory syndrome coronavirus 2, Calu-3, 24 h
[10] = system: SARS-CoV-2 B.1.427 (Epsilon); experiment: microbe, parasite or virus in culture; assay type: cell-based; conditions: Severe acute respiratory syndrome coronavirus 2, Vero C1008, 24 h
[11] = laboratory mouse liver, lung, and kidney microsomes; cited from earlier work
SARS-CoV-2 [12] = experiment: Combinatorial sangivamycin/remdesivir efficacy testing, Vero E6 cells; assay type: cell-based; conditions: Severe acute respiratory syndrome coronavirus 2, Vero C1008; read-out: IC50 (nM), S:R by [Remdesivir]
[13] = system: SARS-CoV-2 B.1.427 (Epsilon); experiment: microbe, parasite or virus in culture; assay type: cell-based; conditions: Severe acute respiratory syndrome coronavirus 2, Calu-3, 24 h
SARS-CoV-2 P.1 (Gamma) [14] = experiment: microbe, parasite or virus in culture; assay type: cell-based; conditions: Severe acute respiratory syndrome coronavirus 2, Vero C1008, 24 h
[15] = system: SARS-CoV-2 B.1.1.7 (Alpha); experiment: microbe, parasite or virus in culture; assay type: cell-based; conditions: Severe acute respiratory syndrome coronavirus 2, Calu-3, 24 h
[16] = system: SARS-CoV-2 B.1.1.7 (Alpha); experiment: microbe, parasite or virus in culture; assay type: cell-based; conditions: Severe acute respiratory syndrome coronavirus 2, Vero C1008, 24 h
SARS-CoV-2 P.2 (Zeta) [17] = experiment: microbe, parasite or virus in culture; assay type: cell-based; conditions: Severe acute respiratory syndrome coronavirus 2, Calu-3, 24 h
SARS-CoV-2 [18] = experiment: Combinatorial sangivamycin/remdesivir efficacy testing, Caco-2 cells; assay type: cell-based; conditions: Severe acute respiratory syndrome coronavirus 2, Caco-2; read-out: IC50 (nM), S:R by [Remdesivir]
[19] = system: SARS-CoV-2 B.1.351 (Beta); experiment: microbe, parasite or virus in culture; assay type: cell-based; conditions: Severe acute respiratory syndrome coronavirus 2, Calu-3, 48 h
[20] = system: SARS-CoV-2 B.1.429 (Epsilon); experiment: microbe, parasite or virus in culture; assay type: cell-based; conditions: Severe acute respiratory syndrome coronavirus 2, Calu-3, 24 h
[21] = system: SARS-CoV-2 B.1.429 (Epsilon); experiment: microbe, parasite or virus in culture; assay type: cell-based; conditions: Severe acute respiratory syndrome coronavirus 2, Vero C1008, 48 h
SARS-CoV-2 WA1 [22] = experiment: microbe, parasite or virus in culture; assay type: cell-based; conditions: Severe acute respiratory syndrome coronavirus 2, Caco-2, 96 h
[23] = mice; cited from earlier work
[24] = 24-hour plasma pharmacokinetics in CD-1 laboratory mice; assay type: in vivo, mouse; conditions: CD-1 mice, sangivamycin i.p. 60 mg/kg; not in control mice
Experimental: We next evaluated the 24-hour pharmacokinetics (PK) of sangivamycin in CD-1 laboratory mouse plasma. Sangivamycin’s plasma concentrations increased following i.p. injection of 60 mg/kg to a peak at 2 hours, then decreased over 6 or 8 hours, and remained virtually unchanged up to 24 hours after dosing. […] Graphing plasma concentration versus time produced an area under the curve to the last time point with values of 632 ± 66.6 h•ng/mL for males and 833 ± 53.9 h•ng/mL for females. […] Our data corroborate historical PK studies in mice with ^3H-labeled sangivamycin performed at the NCI in 1974 ([20]). In these studies, free nucleoside and mono-, di-, and triphosphate forms of sangivamycin were detected in blood, urine, and multiple tissues (e.g., heart, liver, brain, spleen, and kidneys) following i.p. injection of 8 mg/kg. The studies established that sangivamycin was phosphorylated after transportation into cells. In liver, heart, and brain, the predominant form of sangivamycin was sangivamycin 5′-monophosphate (SMP). […] Therefore, we determined the level of SMP in blood in our PK study using a published liquid chromatography–tandem mass spectrometry (LC-MS/MS) method with a lower limit of quantification of 1 ng/mL ([33]). Using this method, we detected SMP in the plasma of dosed mice but not control mice (Supplemental Figure 9B). The apparent levels of SMP increased in blood during the 24 hours of this study. There also was possible presence of a diphosphate metabolite of sangivamycin, but it was detected only in the plasma samples taken 24 hours after dosing.

[25] = Severe acute respiratory syndrome coronavirus 2, Vero C1008, 48 h

Structure (SMILES): CCCCc1oc2ccccc2c1C(=O)c1cc(I)c(OCCN(CC)CC)c(I)c1 [Amiodarone, reference compound]
- NBD-PE fluorescence (phospholipidosis) (A549 cells): induced NBD-PE fluorescence

Structure (SMILES): N#C[C@@]1(c2ccc3c(N)ncnn23)O[C@H](CO)[C@@H](O)[C@H]1O [GS-441524, reference compound]
- IC50 fold higher than the IC50 of sangivamycin (SARS-CoV-2 WA1 [1]): 27 fold
- IC50 (SARS-CoV-2 WA1 [1]; Severe acute respiratory syndrome coronavirus 2, Vero C1008): 1.42 ± 0.02 µM

Structure (SMILES): CC(C)C(=O)OC[C@H]1O[C@@H](n2ccc(NO)nc2=O)[C@H](O)[C@@H]1O [Molnupiravir]
- reduction of risk for hospitalization and death [2]: 30%

Structure (SMILES): CCC(CC)COC(=O)[C@H](C)N[P@](=O)(OC[C@H]1O[C@@](C#N)(c2ccc3c(N)ncnn23)[C@H](O)[C@@H]1O)Oc1ccccc1 [Remdesivir, remdesivir, reference compound]
- IC50 [3]: 2.91 µM
- IC90 [3]: > 10 µM
- IC50 (SARS-CoV-2 [4]): 4470 nM
- IC50 (SARS-CoV-2 P.2 (Zeta) [5]): 1.56 µM
- IC90 (SARS-CoV-2 P.2 (Zeta) [5]): 4.91 µM
- IC50 (SARS-CoV-2 WA1 [6]): 4.49 µM
- IC90 (SARS-CoV-2 WA1 [6]): 8.19 µM
- IC50 [7]: 2.37 µM
- IC90 [7]: 4.03 µM
- IC50 [8]: 5.46 µM
- IC90 [8]: > 10 µM
- IC50 (SARS-CoV-2 P.1 (Gamma) [9]): 1.71 µM
- IC90 (SARS-CoV-2 P.1 (Gamma) [9]): 6.27 µM
- IC50 [10]: 1.27 µM
- IC90 [10]: 3.28 µM
- time within which remdesivir and its monophosphate are lost [11]: ≤ 10 min
- IC50 (SARS-CoV-2 [12]): 2320 nM
- IC50 [13]: 1.5 µM
- IC90 [13]: 6.09 µM
- IC50 (SARS-CoV-2 P.1 (Gamma) [14]): 0.702 µM
- IC90 (SARS-CoV-2 P.1 (Gamma) [14]): 3.68 µM
- IC50 [15]: 3.18 µM
- IC90 [15]: > 10 µM
- IC50 [16]: 1.42 µM
- IC90 [16]: 3.68 µM
- IC50 (SARS-CoV-2 P.2 (Zeta) [17]): 0.791 µM
- IC90 (SARS-CoV-2 P.2 (Zeta) [17]): 4.8 µM
- IC50 (SARS-CoV-2 [18]): 17.6 nM
- IC90 (SARS-CoV-2 WA1 [1]; [25]): 3.53 µM
- IC50 (SARS-CoV-2 WA1 [1]; [25]): 2.27 µM
- IC50 [19]: 0.951 µM
- IC90 [19]: 2.29 µM
- IC50 [20]: 2.8 µM
- IC90 [20]: > 10 µM
- IC50 [21]: 1.77 µM
- IC90 [21]: 2.47 µM
- IC50 (SARS-CoV-2 WA1 [22]): 0.003 µM
- IC90 (SARS-CoV-2 WA1 [22]): 0.013 µM
- half-lives (free nucleoside and monophosphate forms) [23]: about 5 hours

Structure (SMILES): NC(=O)c1cn(C2OC(COP(=O)(O)O)C(O)C2O)c2ncnc(N)c12 (centres unmarked) [SMP, sangivamycin 5′-monophosphate]
- presence in plasma of sangivamycin-dosed mice (LC-MS/MS) [24]: detected
